{"source": "patent US8268635B2", "about": "“Methods of identifying agents that selectively activate p38 and/or NKkB signaling” (priority 2006, dated 2012)", "key": {"p38": {"test_system": "p38", "assay": "p38 activity in HEK293T cells", "type": "cell-based, human", "procedure": "HEK 293T cells were stably transfected with wild-type TRAF2, a dominant-negative TRAF2 (ΔTRAF2) or an empty vector. TNF70-80 (10 μM) was added and the cells were incubated for 5 min. at 37° C., lysed and p38 immunoprecipitated. Kinase activity was assayed using myelin basic protein as a substrate. The data (representative digital radiogram and profile of phosphorylated MBP) shown are representative of 2 experiments.\nHEK 293T cells were obtained from the American Type Culture Collection and maintained in DMEM, supplemented with 10% fetal calf serum. Cells, stably transfected with pRK5-TRAF2-FLAG, pRK5-TRAF287-501-FLAG (Dr. V. Dixit, Genentech Inc., South San Francisco) or an empty plasmid using LipofectAMINE 2000, were obtained from Dr P Xia, Hanson Institute, Adelaide, Australia) (Xia, P., Wang, L., Moretti, P. A., Albanese, N., Chai, F., Pitson, S. M., D'Andrea, R. J., Gamble, J. R., and Vadas, M. A. (2002) J. Biol. Chem. 277: 7996-8003).\nLysates containing equal amounts of protein (0.5-1 mg) were precleared with protein A sepharose (4° C.) before being incubated with anti-KHS, anti-p38, anti-ASK-1 or anti-ERK2 antibody (3 μg/sample). After mixing for 2 h (4° C.), the immune complexes were precipitated by the addition of protein A sepharose. The immunoprecipitates were collected by centrifugation (16,000 g×15s) and washed once with buffer A (4° C.), once with buffer B (10 mM Tris/HCl, pH 7.6, 100 mM NaCl, 1 mM EDTA and 100 μM […] and once with assay buffer (Hii, C. S., Huang, Z. H., Bilney, A., Costabile, M., Murray, A. W., Rathjen, D. A., Der, C. J., and Ferrante, A. (1998) J. Biol. Chem. 273: 19277-19282).\nKHS (hereon referred to as “GCKR”) activity was assayed as described previously using myelin basic protein as a substrate (Shi, C. S., Leonardi, A., Kyriakis, J., Siebenlist, U., and Kerhl, J. H. (1999) J. Immunol. 163: 3279-3285). ASK-1 activation was determined in immunoprecipitates of ASK-1 by autophosphorylation (Kyriakis, J. M., and Auruch, J. (2001) Physiol. Rev. 81: 807-869). p38 and ERK activities were determined as described using myelin basic protein as a substrate (Hii, C. S., Huang, Z. H., Bilney, A., Costabile, M., Murray, A. W., Rathjen, D. A., Der, C. J., and Ferrante, A. (1998) J. Biol. Chem. 273: 19277-19282). […] A solid phase assay using glutathione-S-transferase (GST)-conjugated-jun (1-79) was employed to assay JNK activity (Hii, C. S., Huang, Z. H., Bilney, A., Costabile, M., Murray, A. W., Rathjen, D. A., Der, C. J., and Ferrante, A. (1998) J. Biol. Chem. 273: 19277-19282). Phosphorylated ASK-1, myelin basic protein and GST-jun (1-79) were fractionated on 8, 16 and 12% SDS polyacrylamide gels, respectively, and the bands were detected and radioactivity determined using an Instant Imager (Packard Instruments, Canberra, Australia). […]"}, "NFκB": {"test_system": "NFκB", "assay": "NFκB pathway activation in human neutrophils (nuclear translocation of NFκB)", "type": "cell-based", "procedure": "After cell lysis, nuclear fractions were prepared, nuclear proteins separated by SDS page (12% gel), transferred to nitrocellulose and probed with an anti NFκB p65 antibody (Santa Cruz).\nWestern blot analysis was conducted as described previously (Hii, C. S., Huang, Z. H., Bilney, A., Costabile, M., Murray, A. W., Rathjen, D. A., Der, C. J., and Ferrante, A. (1998) J. Biol. Chem. 273: 19277-19282). Briefly, equal amounts of denatured protein from each lysate were separated by 12% SDS polyacrylamide gel electrophoresis (PAGE). The proteins were electrophoretically transferred to nitrocellulose membranes (Schleicher and Schuell, Keene, N. H., USA)(3 h at 40V). […] Immune complexes were visualised by enhanced chemiluminescence (Hii, C. S., Huang, Z. H., Bilney, A., Costabile, M., Murray, A. W., Rathjen, D. A., Der, C. J., and Ferrante, A. (1998) J. Biol. Chem. 273: 19277-19282).\nThis pathway, akin to the p38 pathway, is dependent on TRAF-2 and RIP (Kyriakis, J. M., and Auruch, J. (2001) Physiol Rev. 81: 807-869). We measured the nuclear translocation of NFκB as an indicator of the activation of this pathway."}, "[1]": {"test_system": "mutant receptor peptide M4", "assay": "Binding of biotinylated TNF70-80 to mutant receptor peptide M4", "parameters": "species or system human", "conditions": "20 μM biotinylated TNF70-80, 18 hrs at 37° C.", "procedure": "100 μl of 0.7 mM solution of M4 or 1% BSA in PBS for control was coated on plates overnight for 24 hrs at 37° C. Plates were blocked for 6 hrs at 37° C. with 3% BSA in PBS. 100 μl of 20 μM of B-TNF70-80 was added to each well and allowed to incubate for 18 hrs at 37° C. Streptavidin-horseradish peroxidase and TMB H2O2 was added and bound product was detected by measuring absorbance at 450 nm.\n100 μl of 0.7 mM solution of M4 or 1% BSA in PBS for control was coated on plates overnight for 24 hrs at 37° C. Plates were blocked for 6 hrs at 37° C. with 3% BSA in PBS. 100 μl of 20 μM of B-TNF70-80 was added to each well and allowed to incubate for 18 hrs at 37° C. Streptvadin-horseradish peroxidase and TMB H2O2 was added and bound product was detected by measuring absorbance at 450 nm."}}, "note": "Where no end group is shown, it is not given here.", "data": [{"substance": "PSTHVLITHTI-OH [TNF70-80]", "values": [{"measurement": "activity of p38 in HEK293T cells", "setting": "p38", "value": "able to stimulate the activity of p38"}, {"measurement": "p38 activation in HEK293T cells expressing dominant-negative ΔTRAF2", "setting": "p38; TNF70-80 10 μM, 5 min", "value": "substantial attenuation of this response"}, {"measurement": "p38 activation in HEK293T cells over expressing TRAF2 compared to empty plasmid", "setting": "p38; TNF70-80 10 μM, 5 min", "value": "enhanced the activation of p38 by TNF70-80"}, {"measurement": "increase of p38 activity over control in HEK293T cells", "setting": "p38; treatment for 5 min, p<0.05, n=3", "value": "243+27 % over control"}, {"measurement": "nuclear translocation of NFκB in neutrophils", "setting": "NFκB; TNF70-80 10 μM, 30 min or 1 h", "value": "caused the translocation of NFκB to the nucleus"}, {"measurement": "degradation of IκB", "setting": "NFκB; data not shown", "value": "caused the degradation of IκB"}, {"measurement": "binding to mutant receptor peptide M4 (truncated receptor)", "setting": "[1]", "value": "binds to the truncated receptor"}]}]}
